Measured values from patent US20220008455A1, “Compound and Composition for Use in the Preventive and/or Curative Treatment of Diseases of the Central Nervous System Characterised by a Decline in Neuronal Plasticity, in Particular Characterised by a Decline in Synaptic Plasticity” (SYNAPHARM INDUSTRIAL SYNTHESIS, priority 2017, published 2022).

System: synaptic responses between Schaffer collaterals and dendrites in the CA1 region
Test: Long-term potentiation in hippocampal slices of magnesium-deficient rats (restoration of synaptic plasticity)
Assay type: ex vivo, rat
Experimental: [Comparative experiments were conducted on rats to measure the efficiency of synaptic transmission and synaptic plasticity, in particular in order to measure the recovery of synaptic plasticity.
Three groups of rats were made up as follows:
Group 1: control rats on a normal diet;
Group 2: magnesium-deficient rats on a low-magnesium diet;
Group 3: magnesium-deficient rats supplemented with a composition according to the invention containing magnesium N-acetyl taurinate dihydrate containing two intrinsic water molecules (ATAMg dihydrate) at a dose of […] magnesium N-acetyl taurinate dihydrate containing two intrinsic water molecules (in the water). Supplementation was started 40 days after the beginning of the low-magnesium diet and was carried on for 24 days.
The hippocampi of the rats from each group were dissected to measure synaptic plasticity. In particular, synaptic responses were measured between Schaffer collaterals and dendrites in the CA1 region. A baseline was recorded for 30 minutes corresponding to a synaptic response of 40% of the peak response. Then the long-term plasticity process was induced by applying four 100 Hz trains at 5-minute intervals. The increased response was measured over four hours. For every experiment, a control pathway without any high-frequency stimulation was also measured.

CC(=O)NCCS(=O)(=O)[O-].CC(=O)NCCS(=O)(=O)[O-].O.O.[Mg+2] [magnesium N-acetyl taurinate dihydrate]
long-term potentiation (Group 3: magnesium-deficient rats supplemented in the water at 50 mg/kg/hour (50 mg/kg/day) for 24 days, four 100 Hz trains, response measured over four hours, FIG. 3): over 300% | control pathway / baseline stability (Group 3: magnesium-deficient rats supplemented in the water for 24 days, control pathway without high-frequency stimulation, FIG. 3): stabilisation of the baseline | recovery/restoration of synaptic plasticity (comparison of Group 3 (supplemented) with Group 2 (magnesium-deficient rats)): induces the recovery/restoration of synaptic plasticity
